Results on eleven compounds are retold here after ChEMBL document CHEMBL1201862, “PubChem BioAssay data set” (2004).

The structures appear in SMILES notation.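 Five concentrations, 48 hours, 96-well plates. Abbreviation: GI50, concentration required for 50% inhibition of growth.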 The source made the active and inactive calls. No stated cut-off is given here; in the data, active = GI50 up to about 1.1 µM and inactive = higher.

Some test systems named below: OVCAR-4; OVCAR-3; K562; A498; T47D; 786-0; OVCAR-5; SW-620; SK-OV-3; OVCAR-8; NCI-H23; M14; A549; HCT-15; HCT-116; LOX IMVI; SK-MEL-2; IGROV-1; MDA-MB-231.
Test in all cases: NCI anticancer screen, dose series, 48 h

`Oc1c2cc(Cl)cc1COCc1cc(Cl)cc(c1O)COCc1cc(Cl)cc(c1O)COC2`: the GI50 was 23 µM (inactive) in the test on OVCAR-4; 47.2 µM (inactive) in the test on OVCAR-3; 67.5 µM (inactive) in the test with K562; 82.8 µM (inactive) with A498; 15.7 µM (inactive) in the test on T47D; 9.42 µM (inactive) in the test on 786-0. In addition, the GI50 in the test with OVCAR-5 is 40.3 µM (inactive); in the test with SW-620 it was > 100 µM (inactive); with SK-OV-3 it was 59.6 µM (inactive); with OVCAR-8 it was 11.8 µM (inactive); with NCI-H23 it was 20.8 µM (inactive); in the test with M14, 18.7 µM (inactive). Further, the GI50 in the test with A549 is 34.8 µM (inactive); with HCT-15, 36 µM; with HCT-116, 8.13 µM (inactive); in the test on LOX IMVI, 36.7 µM (inactive); with SK-MEL-2, > 100 µM (inactive); in the test with IGROV-1 it was 17 µM (inactive).

In the case of `Cc1ccc(C2SCC(=O)N2NC(=O)c2ccncc2)s1` (centres undefined), the GI50 in the test with OVCAR-4, with OVCAR-3, in the test with K562, with A498, with T47D and in the test on 786-0 was > 100 µM (inactive) throughout. The GI50 with OVCAR-5, in the test with MDA-MB-231, in the test on SW-620, in the test on SK-OV-3, in the test on OVCAR-8 and in the test on NCI-H23 was > 100 µM (inactive) each time. The GI50 was > 100 µM (inactive) with M14; > 100 µM (inactive) in the test on A549; more than 100 µM with HCT-15; > 100 µM (inactive) with HCT-116; > 100 µM (inactive) in the test on LOX IMVI; > 100 µM (inactive) with SK-MEL-2. In the test on IGROV-1, the GI50 was > 100 µM (inactive).

`Cc1cc(S(=O)(=O)/N=C2\NCCN2Cc2ccccc2)c(S)cc1Cl`: the GI50 in the test on OVCAR-4, with OVCAR-3, in the test on K562, with 786-0, in the test with OVCAR-5 and with MDA-MB-231 was > 100 µM (inactive) in each case. The GI50 in the test with SW-620, in the test with SK-OV-3, in the test with OVCAR-8, in the test with NCI-H23, in the test on M14 and with A549 was > 100 µM (inactive) in each case. The GI50 with HCT-15 is more than 100 µM; with HCT-116 it was > 100 µM (inactive); in the test with LOX IMVI it was > 100 µM (inactive); with SK-MEL-2, > 100 µM (inactive); with IGROV-1, > 100 µM (inactive).

For `NS(=O)(=O)c1cc2c(cc1Cl)NC(C(=O)c1cc(=O)c3ccc(O)cc3o1)=NS2(=O)=O`, the GI50 with OVCAR-4, in the test on OVCAR-3, with K562, in the test with A498, with 786-0 and with OVCAR-5 was > 100 µM (inactive) in each case. The GI50 in the test with SW-620, with SK-OV-3, in the test with OVCAR-8, with NCI-H23, with M14 and in the test with A549 was > 100 µM (inactive) each time. In addition, the GI50 was more than 100 µM with HCT-15; > 100 µM (inactive) with HCT-116; > 100 µM (inactive) with LOX IMVI; > 100 µM (inactive) in the test with SK-MEL-2; > 100 µM (inactive) with IGROV-1.

As for `CC1(C)N=C(Oc2ccccc2)n2nccc2N1`, the GI50 with OVCAR-4 is > 100 µM (inactive); in the test on OVCAR-3, > 100 µM (inactive); in the test on K562, 82.8 µM (inactive); in the test with A498, > 100 µM (inactive); in the test with 786-0, 59.4 µM (inactive); in the test on OVCAR-5 it was > 100 µM (inactive). The GI50 in the test on SW-620 was > 100 µM (inactive); in the test with SK-OV-3, > 100 µM (inactive); in the test with NCI-H23, > 100 µM (inactive); in the test on M14, 73.1 µM (inactive); in the test with A549, > 100 µM (inactive); with HCT-15, more than 100 µM. Besides, the GI50 in the test on HCT-116 was 51.9 µM (inactive); in the test with LOX IMVI, 53.8 µM (inactive); with SK-MEL-2, > 100 µM (inactive); with IGROV-1 it was > 100 µM (inactive).

As to `O=C(CSc1nc2ccc(I)cc2c(=O)n1Cc1ccccc1)NN1C(=O)CCC1=O`, the GI50 is 21.5 µM (inactive) in the test with OVCAR-4; 23.5 µM (inactive) with OVCAR-3; 33.3 µM (inactive) in the test on K562; 40 µM (inactive) in the test on T47D; 52.7 µM (inactive) with 786-0; > 100 µM (inactive) in the test with OVCAR-5. Moreover, the GI50 in the test on MDA-MB-231 is 32.4 µM (inactive); with SW-620, 75.2 µM (inactive); in the test with SK-OV-3, 52 µM (inactive); in the test on OVCAR-8, 37.6 µM (inactive); in the test on NCI-H23 it was 17.6 µM (inactive); with M14 it was 79.8 µM (inactive). In addition, the GI50 was 49.4 µM (inactive) in the test on A549; 22.5 µM in the test on HCT-15; 43.3 µM (inactive) in the test with HCT-116; 59.3 µM (inactive) in the test with LOX IMVI; 47 µM (inactive) in the test with SK-MEL-2; 29.9 µM (inactive) in the test with IGROV-1.

In the case of `CCN(CCCN(CC)C(=O)Nc1ccccc1)C(=O)Nc1ccccc1`, the GI50 in the test with OVCAR-4, with OVCAR-3, in the test with K562, in the test on T47D, in the test with 786-0 and with OVCAR-5 was > 100 µM (inactive) each time. The GI50 with MDA-MB-231, in the test on SW-620, in the test with SK-OV-3, in the test with OVCAR-8, in the test with NCI-H23 and in the test with M14 was > 100 µM (inactive) each time. The GI50 is > 100 µM (inactive) in the test with A549; more than 100 µM in the test on HCT-15; > 100 µM (inactive) with HCT-116; > 100 µM (inactive) in the test on LOX IMVI; > 100 µM (inactive) in the test with SK-MEL-2; > 100 µM (inactive) in the test with IGROV-1.

For `NC(=O)c1csc(C2OC(COP(=O)(O)CP(=O)(O)OCC3OC(n4cnc5c(N)ncnc54)C(O)C3O)C(O)C2O)n1` (centres undefined), the GI50 in the test on OVCAR-4 was > 100 µM (inactive); in the test with OVCAR-3, > 100 µM (inactive); with K562, 55.3 µM (inactive); with A498 it was > 100 µM (inactive); in the test on 786-0, > 100 µM (inactive); in the test with OVCAR-5 it was > 100 µM (inactive). The GI50 in the test on SW-620, in the test with SK-OV-3, in the test on OVCAR-8, in the test on NCI-H23, with M14 and in the test on A549 was > 100 µM (inactive) throughout. Moreover, the GI50 with HCT-15 is 78.3 µM; in the test with LOX IMVI, 97.1 µM (inactive); with SK-MEL-2 it was > 100 µM (inactive); in the test on IGROV-1 it was > 100 µM (inactive).

As to `CC(=O)N/C(=C\c1ccc(Cc2nc3c([nH]2)C(=O)c2ccccc2C3=O)cc1)c1nc2c([nH]1)C(=O)c1ccccc1C2=O`, the GI50 in the test on OVCAR-4, in the test on OVCAR-3, in the test with K562, with A498, with 786-0 and in the test on OVCAR-5 was > 100 µM (inactive) each time. The GI50 is > 100 µM (inactive) in the test with SW-620; > 100 µM (inactive) in the test with SK-OV-3; 43.5 µM (inactive) in the test with OVCAR-8; > 100 µM (inactive) with NCI-H23; > 100 µM (inactive) with M14; > 100 µM (inactive) in the test on A549. For the same compound, the GI50 with HCT-116, in the test on LOX IMVI, with SK-MEL-2 and with IGROV-1 was > 100 µM (inactive) throughout.

As for `CCCCCCCCCCCCCCCC[N+](C)(C)Cc1ccc(C[N+](C)(C)CCCCCCCCCCCCCCCC)cc1`, the GI50 was 3.23 µM (inactive) in the test with OVCAR-4; 2.54 µM (inactive) in the test on OVCAR-3; 2.06 µM (inactive) in the test on K562; > 100 µM (inactive) with A498; 2.5 µM (inactive) in the test on 786-0; 1.91 µM (inactive) in the test on OVCAR-5. In addition, the GI50 in the test with SW-620 is 2.99 µM (inactive); in the test on SK-OV-3, 2.62 µM (inactive); in the test on OVCAR-8 it was 2.04 µM (inactive); with NCI-H23, 1.88 µM (inactive); in the test on M14 it was 2.89 µM (inactive); in the test with A549, 2.09 µM (inactive). The GI50 with HCT-15 is 3.66 µM; in the test with HCT-116, 2.59 µM (inactive); with LOX IMVI it was 2.74 µM (inactive); in the test on SK-MEL-2, 2.04 µM (inactive); in the test with IGROV-1 it was 2.43 µM (inactive).

Take `CN(C)C1(N(C)C)Oc2c(c(=O)n(C)c(=O)n2C)C(c2ccccc2)C1(F)F` (centres undefined): the GI50 with OVCAR-4, in the test with OVCAR-3, in the test on K562, with A498, in the test on T47D and with 786-0 was > 100 µM (inactive) in each case. The GI50 in the test with OVCAR-5, with MDA-MB-231, in the test on SW-620, with SK-OV-3, with NCI-H23 and with M14 was > 100 µM (inactive) each time. Also, the GI50 in the test with A549 was > 100 µM (inactive); in the test with HCT-15 it was more than 100 µM; with HCT-116, > 100 µM (inactive); in the test with LOX IMVI, > 100 µM (inactive); with SK-MEL-2, > 100 µM (inactive).
